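Cells were grown in 96-well plates and exposed to each compound for 48 hours at five concentrations; endpoints were interpolated linearly between bracketing concentrations, or set to the highest concentration if not reached. The concentration for 50% growth inhibition is given as GI50. TGI marks complete inhibition of growth.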
Tests used:
Assay in all cases: NCI tumour cell line growth inhibition, 48 h
NCI-H522 lung = test system: NCI-H522 lung
RXF 393 renal = test system: RXF 393 renal
LOX IMVI melanoma = test system: LOX IMVI melanoma
OVCAR-3 ovarian = test system: OVCAR-3 ovarian
HT29 colon = test system: HT29 colon
IGROV1 ovarian = test system: IGROV1 ovarian
SW-620 colon = test system: SW-620 colon
HS 578T breast = test system: HS 578T breast
SK-MEL-28 melanoma = test system: SK-MEL-28 melanoma
HL-60(TB) leukemia = test system: HL-60(TB) leukemia

Compound | GI50 (NCI-H522 lung) [µM] | TGI (NCI-H522 lung) [µM] | GI50 (RXF 393 renal) [µM] | TGI (RXF 393 renal) [µM] | GI50 (LOX IMVI melanoma) [µM] | TGI (LOX IMVI melanoma) [µM] | GI50 (OVCAR-3 ovarian) [µM] | TGI (OVCAR-3 ovarian) [µM] | GI50 (HT29 colon) [µM] | TGI (HT29 colon) [µM] | GI50 (IGROV1 ovarian) [µM] | TGI (IGROV1 ovarian) [µM] | GI50 (SW-620 colon) [µM] | TGI (SW-620 colon) [µM] | GI50 (HS 578T breast) [µM] | TGI (HS 578T breast) [µM] | GI50 (SK-MEL-28 melanoma) [µM] | TGI (SK-MEL-28 melanoma) [µM] | TGI (HL-60(TB) leukemia) [µM]
C=C1C(=O)O[C@H]2[C@H]1CC/C(COC(=O)NCCc1c[nH]c3ccc(OC)cc13)=C\CC[C@@]1(C)O[C@@H]21 | 1.18 | 2.75 | 1.46 | 2.92 | 1.32 | 2.78 | 1.44 | 3.92 | 1.58 | 3.09 | 2.08 | 4.7 | 1.94 | 5.27 | 6.42 | 36.9 | 1.65 | 3.22 | 
COc1ccccc1C#Cc1ccccc1C#CCCCCCC#Cc1ccccc1C#Cc1ccccc1OC | 40.3 | > 100 | 26.6 | > 100 | 98.1 | > 100 | 93.5 | > 100 | 24.6 | > 100 | 77.7 | > 100 | > 100 | > 100 | > 100 | > 100 | 68.6 | > 100 | 
O=C1CN(C(=O)c2ccccc2)Cc2[nH]c3ccccc3c21 |  | > 100 |  | > 100 |  | > 100 |  | > 100 |  | > 100 |  | > 100 |  | > 100 |  |  |  | > 100 | > 100
CCOC(=O)/C=C/C(C(=O)/C=C/c1ccc(O)c(OC)c1)=C(O)\C=C\c1ccc(O)c(OC)c1 | 4.51 | 36.4 |  |  | 0.903 | 3.12 | 3.39 | 12.3 | 1.83 | 6.6 | 11 | 93.8 | 3.6 | 24.7 | 4.25 | 41.7 | 2 | 6.09 | 
Cc1ccc(SC2=CC(=O)c3nc4ccccc4c4ccnc2c34)cc1 | 16.3 | 38.4 | 21.9 | 50 | 28.5 | > 100 | 23.2 | > 54.7 | 38 | > 100 | > 37.9 | > 58.5 | 23.1 | 47.9 | 43.8 | > 95 | > 100 | > 100 | 
CCSC1=C(C)N(C=NC(C)(C)C)CC1 |  | > 100 |  | > 100 |  | > 100 |  | > 100 |  | > 100 |  | > 100 |  | 73.8 |  |  |  | > 100 | > 100
O=C1C(=O)N(c2ccc(Cl)cc2Cl)C(=O)C(=O)C1c1nc2ccccc2o1 |  | > 100 |  |  |  |  |  | > 100 |  | > 100 |  | > 100 |  | > 100 |  |  |  | > 100 | > 100
CC(=O)OC1CC2(O)C3CCC4CC(O)CCC4(C)C3CCC2(C)C1C1=CC(=O)OC1 (centres undefined) |  | 0.185 |  |  |  | 0.209 |  | 0.172 |  | 0.779 |  | 1.77 |  | 1.41 |  | > 100 |  | 0.654 | 0.237

— PubChem BioAssay (NCI)
